Blank lines part the entries; values can stand above or below the molecule they belong to.
What was measured:
[1] = Solubility of salts of compound 1; format: physicochemical; conditions: for Solubility in Water: overnight
[2] = system: Human Umbilical Vein Endothelial Cells (HUVEC); test: Endothelial cell proliferation assay (MTS); format: cell-based; conditions: 48 hrs
Protocol: Human Umbilical Vein Endothelial Cells (HUVEC from Clonetics) were plated in 96 well plates at 1000 cell per well in EGM-2 medium (Clonetics). Cells were grown overnight at 37° C. in 5% CO2. Fresh EGM-2 medium containing compound at the desired concentration was added to the wells and the cells allowed to grow for a further 48 hrs. A MTS (Promega) colorimetric assay was performed after 48 hrs to determine cell growth according to the manufacturers instructions. Results are presented in terms of percentage growth.

[3] = target: T1, SSTR-3 (Homo sapiens, UniProt P32745); test: Radioligand binding screen against somatostatin subtype SSTR-3; conditions: Table 8; for Ki: read-out: Ki SSTR3; for IC50: shown where Ki could not be determined (NoModel), read-out: IC50 SSTR3 (in parentheses)
T1 construct: expressed in transfected cells
Protocol: (§1) Receptor membrane preparations containing the desired cloned receptor (for example cloned human somatostatin receptor subtype 5, SSTR5) and radio-labeled ligand (for example 3-[^125I]iodotyrosyl^11 Somatostatin-14)) were diluted at the concentration required for testing and according to the specific parameters associated with the selected receptor-ligand combination, including receptor Bmax, ligand Kd and any other parameters necessary to optimize the experimental conditions. When tested for competition activity to the reference ligand, “compound 1” was mixed with membrane suspension and the radiolabeled reference ligand (with or without an excess of cold ligand to the receptor for determination of non-specific binding) and incubated at the temperature required by internal standard operating procedures. Following incubation, the binding reaction was stopped by the addition of ice-cold washing buffer and filtered on appropriate filters, which are then counted. Data analysis and curve-fitting was performed with XLfit (IDBS).
(§2) 10 mM solutions of test compounds in 100% DMSO were prepared. ˜160 μl was used for each dilution (20 μl/well in triplicate).
(§3) A 1.25 mM assay stock was prepared by making a 1:8 dilution of the 10 mM solution. (To 30 μL of the 10 mM solution was added 210 μL milli-Q H2O. A 1:5 dilution series in milli-Q H2O was then prepared.
(§4) In primary screening experiments compounds were tested in duplicate for a particular concentration.

[4] = target: T2, SSTR-4 (Homo sapiens, UniProt P31391); test: Radioligand binding screen against somatostatin subtype SSTR-4 (SST4 assay); conditions: Table 8; read-out: Ki SSTR4
T2 construct: expressed in transfected cells
Protocol: as §1, §2, §3
Assays were performed in triplicate at each concentration within the 1:5 dilution series: 250 μM, 50 μM, 10 μM, […], 0.4 μM, 0.08 μM, 0.016 μM, 0.0032 μM, etc. (for SST4 assay) and 125 μM, 10 μM, 2 μM, 1 μM, 0.5 μM, etc (for SST5 assay).
as §4

[5] = target: T3, SSTR-2 (Homo sapiens, UniProt P30874); test: Radioligand binding screen against somatostatin subtype SSTR-2; conditions: Table 8; for Ki: read-out: Ki SSTR2
T3 construct: expressed in transfected cells
Protocol: as §1, §2, §3, §4

[6] = target: T4, Human SST5 somatostatin receptor (SSTR5) (Homo sapiens, UniProt P35346); test: Filter plate assay for SST5 receptor, displacement of [125I]SST-14; format: binding; conditions: Table 8
T4 construct: expressed in transfected cells; host or cells: HEK-293 EBNA
Procedure, shortened: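 HEK-293 EBNA membranes expressing human SST5 (5.5 μg) incubated 60 min at 25 °C with 4 nM [125I]SST-14 and compound in pH 7.5 Tris/EGTA/MgCl2/sucrose buffer. Bound radioactivity collected on PEI-coated glass fiber filters and counted; triplicate 1:5 dilution series from 125 μM, non-specific binding with excess cold ligand.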

[7] = target: T5, SSTR-1 (Homo sapiens, UniProt P30872); test: Radioligand binding screen against somatostatin subtype SSTR-1; conditions: Table 8; read-out: Ki SSTR1
T5 construct: expressed in transfected cells
Protocol: as §1, §2, §3, §4

[8] = system: chicken embryo chorioallantoic membrane (CAM) vasculature; test: Early chicken embryo chorioallantoic membrane (earlyCAM) assay; format: in vivo; conditions: dose of 10 nmol
Protocol: Vein diameter was included as a measure of vessel growth. Where there was more than one major vein branch, the diameters of both were added together to give a total vein diameter. In the control CAM there were two well developed vein branches of similar diameter. In contrast, in the treated CAM there was a single major vein branch. Total vein diameter is 239 pixels in the control CAM, and only 107 pixels in the treated CAM.
When “compound 1” was applied to the CAM, there were dose responsive reductions in CAM growth and vasculature. The effects on CAM growth and vessel parameters were expressed as pixel measures (Table 1) and also as a percentage of the vehicle treated control group (FIG. 1). Vein lengths were reduced at all dose levels of “compound 1”, both in pixel and percentage terms, with a reduction to 67% of control at 5 nmol (p<0.05). […] When artery and vein lengths were combined to give total vessel length there was a significant reduction at the 5 nmol level (FIG. 1; p<0.05). A strong trend to reduced CAM growth with increasing doses of “compound 1” was also present.

[9] = system: HUVEC tube formation; test: Matrigel tube formation assay; format: cell-based, human; conditions: 22 hrs, 50% inhibition of tube formation
Protocol: HUVEC (Clonetics) were plated in 96 well plates in EGM-2 media (Clonetics) at 2.5 to 3×10^4 cells per well. Cells of less than 6 passages were used in all studies. Wells were precoated with 50 μL growth factor containing Matrigel (Becton Dickinson). HUVEC were allowed to form tubes by incubation at 37° C. in 5% CO2 for 22 hrs. In test wells compound was added in the desired concentration. Photographic images of the wells ×4 magnification were used to determine size of the tubes, length of tubes and number of junctions using image analysis software.

T4 sequence (P35346 whole entry): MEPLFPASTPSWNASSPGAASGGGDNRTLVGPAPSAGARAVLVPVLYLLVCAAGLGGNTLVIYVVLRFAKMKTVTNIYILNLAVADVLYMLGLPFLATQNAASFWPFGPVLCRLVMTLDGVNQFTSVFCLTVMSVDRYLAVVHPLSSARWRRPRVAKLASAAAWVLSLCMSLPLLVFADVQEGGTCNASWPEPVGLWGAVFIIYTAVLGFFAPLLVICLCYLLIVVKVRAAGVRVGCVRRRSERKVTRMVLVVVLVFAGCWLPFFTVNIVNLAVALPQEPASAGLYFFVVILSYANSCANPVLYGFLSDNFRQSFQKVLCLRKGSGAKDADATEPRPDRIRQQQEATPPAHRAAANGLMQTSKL
T5 sequence (P30872 whole entry, species assumed): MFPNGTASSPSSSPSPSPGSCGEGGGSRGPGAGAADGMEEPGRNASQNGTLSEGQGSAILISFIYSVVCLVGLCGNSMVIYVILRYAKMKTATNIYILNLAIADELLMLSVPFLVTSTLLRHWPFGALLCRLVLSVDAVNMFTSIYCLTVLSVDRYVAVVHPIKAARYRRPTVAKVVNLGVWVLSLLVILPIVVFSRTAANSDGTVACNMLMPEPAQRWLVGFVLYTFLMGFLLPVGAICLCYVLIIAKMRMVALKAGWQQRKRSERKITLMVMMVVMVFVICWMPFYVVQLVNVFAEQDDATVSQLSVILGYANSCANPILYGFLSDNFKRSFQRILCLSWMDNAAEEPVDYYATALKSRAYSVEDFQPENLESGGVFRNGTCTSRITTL
T2 sequence (P31391 whole entry): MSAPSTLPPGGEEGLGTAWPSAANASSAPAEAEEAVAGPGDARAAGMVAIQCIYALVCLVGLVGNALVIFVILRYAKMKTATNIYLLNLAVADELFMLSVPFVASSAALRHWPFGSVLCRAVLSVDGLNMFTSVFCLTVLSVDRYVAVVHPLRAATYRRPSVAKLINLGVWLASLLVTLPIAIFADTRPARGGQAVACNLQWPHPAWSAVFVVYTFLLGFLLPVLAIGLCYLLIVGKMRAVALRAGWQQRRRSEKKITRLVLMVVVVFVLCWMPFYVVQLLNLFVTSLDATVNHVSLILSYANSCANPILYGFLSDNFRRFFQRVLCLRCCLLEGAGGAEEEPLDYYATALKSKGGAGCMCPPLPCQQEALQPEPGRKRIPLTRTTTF
T1 sequence (P32745 whole entry): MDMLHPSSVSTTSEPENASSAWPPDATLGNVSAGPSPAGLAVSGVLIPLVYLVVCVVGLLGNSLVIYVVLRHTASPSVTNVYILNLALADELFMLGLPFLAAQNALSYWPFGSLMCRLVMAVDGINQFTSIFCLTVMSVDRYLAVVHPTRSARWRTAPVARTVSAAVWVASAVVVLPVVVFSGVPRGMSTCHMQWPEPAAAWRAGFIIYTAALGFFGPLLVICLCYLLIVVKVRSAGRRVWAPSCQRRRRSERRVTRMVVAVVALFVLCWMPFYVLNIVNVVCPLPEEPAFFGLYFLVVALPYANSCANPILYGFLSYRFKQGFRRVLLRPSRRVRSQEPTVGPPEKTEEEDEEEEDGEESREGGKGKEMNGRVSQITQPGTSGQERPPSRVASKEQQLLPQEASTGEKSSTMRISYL
T3 sequence (P30874 whole entry): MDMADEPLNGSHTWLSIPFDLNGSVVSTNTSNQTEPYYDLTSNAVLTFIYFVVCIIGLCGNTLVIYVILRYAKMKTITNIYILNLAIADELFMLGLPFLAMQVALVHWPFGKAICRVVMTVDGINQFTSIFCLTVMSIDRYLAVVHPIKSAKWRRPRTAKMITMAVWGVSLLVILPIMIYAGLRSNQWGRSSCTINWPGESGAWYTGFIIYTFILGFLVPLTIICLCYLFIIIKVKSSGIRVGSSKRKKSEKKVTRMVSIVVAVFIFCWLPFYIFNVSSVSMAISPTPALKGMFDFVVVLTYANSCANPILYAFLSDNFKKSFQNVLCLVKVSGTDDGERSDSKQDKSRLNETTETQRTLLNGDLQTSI

Solubility in Water [1]: 6960 µg/mL
Molecule: COC[C@H]1O[C@H](OCCc2ccccc2)[C@H](NC(=O)CCCN)[C@@H](OCc2ccc3ccccc3c2)[C@@H]1O [Acetate]

Ki [3]: 0.203 µM | Ki [4]: 3.26 µM | Ki [5]: 0.728 µM | Ki [6]: 0.353 µM | Ki [7]: 2.28 µM
Molecule: COC[C@H]1OC(OCc2ccc(Cl)cc2)[C@H](NC(=O)CCCN=C(N)N)[C@H](OCc2ccc(Cl)cc2)[C@@H]1O (some centres unmarked) [Compound 2]
Percent cell growth at 125 µM [2]: -83% | Percent cell growth at 250 µM [2]: -91%

Ki [3]: 0.131 µM | Ki [4]: 9.13 µM | Ki [5]: 0.498 µM | Ki [6]: 0.022 µM | Ki [7]: 6.09 µM
Molecule: COC[C@H]1OC(OCc2ccc3ccccc3c2)[C@H](NC(=O)CCN)[C@H](OCc2ccc(Cl)cc2)[C@@H]1O (some centres unmarked) [Compound 7]
Percent cell growth at 125 µM [2]: -81% | Percent cell growth at 250 µM [2]: -63%

IC50 [3]: 0.476 µM | Ki [4]: > 10 µM | Ki [5]: > 10 µM | Ki [6]: 0.062 µM | Ki [7]: > 10 µM
Molecule: COC[C@H]1O[C@H](OCc2ccc3ccccc3c2)[C@H](NC(=O)CCCN)[C@@H](OCc2ccc(Cl)cc2)[C@@H]1O [Compound 13]
Percent cell growth at 125 µM [2]: 58% | Percent cell growth at 250 µM [2]: -80%

Ki [3]: 0.285 µM | Ki [4]: 8.54 µM | Ki [5]: 1.57 µM | Ki [6]: 0.153 µM | Ki [7]: 2.55 µM
Molecule: COC[C@H]1OC(OCCc2ccccc2)[C@H](NC(=O)CCN)[C@H](OCc2ccc3ccccc3c2)[C@@H]1O (some centres unmarked) [Compound 5]
Percent cell growth at 125 µM [2]: -89% | Percent cell growth at 250 µM [2]: -57%

Solubility in 5% Glucose ([1]; 5% Glucose, Day 3): 4980 µg/mL | Solubility in Water [1]: 8520 µg/mL
Molecule: COC[C@H]1O[C@H](OCCc2ccccc2)[C@H](NC(=O)CCCN)[C@@H](OCc2ccc3ccccc3c2)[C@@H]1O [Succinate]

More lines, now with the values behind:

Molecule: octeotride [reference compound]
Effect on the CAM vasculature [8]: did not appear to have any significant effect

Molecule: COC[C@H]1OC(OCc2ccc3ccccc3c2)[C@H](NC(=O)CCCN)[C@@H](OCc2ccc3ccccc3c2)[C@@H]1O (some centres unmarked) [Compound 11]
Percent cell growth at 125 µM [2]: 29% | Percent cell growth at 250 µM [2]: -53% | IC50 [3]: 0.002 µM | Ki [4]: 3.98 µM | Ki [5]: 4.85 µM | IC50 ([6]; shown where Ki could not be determined (NoModel), read-out: IC50 SSTR5 (in parentheses)): 0.003 µM | Ki [7]: 9.22 µM

Molecule: COC[C@H]1OC(OCc2ccc3ccccc3c2)[C@H](NC(=O)CCN)[C@H](OCc2ccccc2)[C@@H]1O (some centres unmarked) [Compound 6]
Percent cell growth at 125 µM [2]: 24% | Percent cell growth at 250 µM [2]: -78% | IC50 [3]: 0.206 µM | Ki [4]: > 10 µM | IC50 ([5]; shown where Ki could not be determined (NoModel), read-out: IC50 SSTR2 (in parentheses)): 29.2 µM | Ki [6]: 0.151 µM | Ki [7]: > 10 µM

Molecule: COC1C(O)C(COCc2ccc3ccccc3c2)OC(OCc2ccc(Cl)cc2)C1NC(=O)C1CCCN(C(=N)N)C1 (mixture of isomers) [14 mixture]
EC50 [9]: 155 µM

Molecule: COCC1OC(OCc2ccc3ccccc3c2)C(NC(=O)CCN)C(OCc2ccc(Cl)cc2)C1O (stereo not drawn) [7 alpha]
EC50 [9]: 50 µM

Molecule: COC[C@H]1O[C@@H](OCc2ccc3ccccc3c2)[C@H](NC(=O)CCN=C(N)N)[C@H](OCc2ccc3ccccc3c2)[C@@H]1O [Compound 8]
Percent cell growth at 125 µM [2]: 66% | Percent cell growth at 250 µM [2]: -18% | Ki [3]: 0.599 µM | Ki [4]: 2.77 µM | Ki [5]: 2.01 µM | Ki [6]: 0.598 µM | Ki [7]: 3.09 µM

Molecule: COC[C@H]1OC(OCc2ccc(Cl)cc2)[C@H](NC(=O)CCCN=C(N)N)[C@H](OCc2ccc3ccccc3c2)[C@@H]1O (some centres unmarked) [Compound 4]
Percent cell growth at 125 µM [2]: -98% | Percent cell growth at 250 µM [2]: -90% | Ki [3]: 0.188 µM | Ki [4]: 1.42 µM | Ki [5]: 0.842 µM | Ki [6]: 0.53 µM | Ki [7]: 1.59 µM

Source: patent US20080280837A1, “Biologically Active Compounds with Anti-Angiogenic Properties” (priority 2004, published 2008)
